In patent US20030199431A1, “Modified peptide nucleic acid (PNA) molecules” (priority 1999, published 2003):
Read-outs that look alike come from different tables or passages of the source.

Legend:
E. coli K12 = assay type: cell-based, Escherichia coli
Procedure: To test the effect of a Peptide without a PNA, peptide no. 2339, H-KFFKFFKFF-OH (SEQ ID NO: 1), was added to E. coli K12 in 10% and 100% medium (Mueller-Hinton broth).

test culture = assay type: cell-based

Substance: H-KFFKFFKFF-OH [Peptide 2339]
- Bacterial growth inhibition (E. coli K12; Peptide 100 nM, 4.0 × 10^3 bacteria/ml, 10% medium): − (Lagphase extended less than five times;)
- Bacterial growth inhibition (E. coli K12; Peptide 100 nM, 4.0 × 10^4 bacteria/ml, 10% medium): − (Lagphase extended less than five times;)
- Bacterial growth inhibition (E. coli K12; Peptide 100 nM, 7.9 × 10^3 bacteria/ml, 10% medium): − (Lagphase extended less than five times;)
- Bacterial growth inhibition (E. coli K12; Peptide 100 nM, 16 bacteria/ml, 100% medium): − (Lagphase extended less than five times)
- Bacterial growth inhibition (E. coli K12; Peptide 100 nM, 160 bacteria/ml, 100% medium): − (Lagphase extended less than five times)
- Bacterial growth inhibition (E. coli K12; Peptide 100 nM, 1600 bacteria/ml, 100% medium): − (Lagphase extended less than five times)
- Bacterial growth inhibition (E. coli K12; Peptide 300 nM, 4.0 × 10^3 bacteria/ml, 10% medium): − (Lagphase extended less than five times;)
- Bacterial growth inhibition (E. coli K12; Peptide 300 nM, 4.0 × 10^4 bacteria/ml, 10% medium): − (Lagphase extended less than five times;)
- Bacterial growth inhibition (E. coli K12; Peptide 300 nM, 7.9 × 10^3 bacteria/ml, 10% medium): − (Lagphase extended less than five times;)
- Bacterial growth inhibition (E. coli K12; Peptide 300 nM, 16 bacteria/ml, 100% medium): − (Lagphase extended less than five times)
- Bacterial growth inhibition (E. coli K12; Peptide 300 nM, 160 bacteria/ml, 100% medium): − (Lagphase extended less than five times)
- Bacterial growth inhibition (E. coli K12; Peptide 300 nM, 1600 bacteria/ml, 100% medium): − (Lagphase extended less than five times)
- Bacterial growth inhibition (E. coli K12; Peptide 500 nM, 4.0 × 10^3 bacteria/ml, 10% medium): − (Lagphase extended less than five times;)
- Bacterial growth inhibition (E. coli K12; Peptide 500 nM, 4.0 × 10^4 bacteria/ml, 10% medium): − (Lagphase extended less than five times;)
- Bacterial growth inhibition (E. coli K12; Peptide 500 nM, 7.9 × 10^3 bacteria/ml, 10% medium): − (Lagphase extended less than five times;)
- Bacterial growth inhibition (E. coli K12; Peptide 500 nM, 16 bacteria/ml, 100% medium): − (Lagphase extended less than five times)
- Bacterial growth inhibition (E. coli K12; Peptide 500 nM, 160 bacteria/ml, 100% medium): − (Lagphase extended less than five times)
- Bacterial growth inhibition (E. coli K12; Peptide 500 nM, 1600 bacteria/ml, 100% medium): − (Lagphase extended less than five times)
- Bacterial growth inhibition (E. coli K12; Peptide 700 nM, 4.0 × 10^3 bacteria/ml, 10% medium): − (Lagphase extended less than five times;)
- Bacterial growth inhibition (E. coli K12; Peptide 700 nM, 4.0 × 10^4 bacteria/ml, 10% medium): − (Lagphase extended less than five times;)
- Bacterial growth inhibition (E. coli K12; Peptide 700 nM, 7.9 × 10^3 bacteria/ml, 10% medium): − (Lagphase extended less than five times;)
- Bacterial growth inhibition (E. coli K12; Peptide 700 nM, 16 bacteria/ml, 100% medium): − (Lagphase extended less than five times)
- Bacterial growth inhibition (E. coli K12; Peptide 700 nM, 160 bacteria/ml, 100% medium): − (Lagphase extended less than five times)
- Bacterial growth inhibition (E. coli K12; Peptide 700 nM, 1600 bacteria/ml, 100% medium): − (Lagphase extended less than five times)
- Bacterial growth inhibition (E. coli K12; Peptide 900 nM, 4.0 × 10^3 bacteria/ml, 10% medium): − (Lagphase extended less than five times;)
- Bacterial growth inhibition (E. coli K12; Peptide 900 nM, 4.0 × 10^4 bacteria/ml, 10% medium): − (Lagphase extended less than five times;)
- Bacterial growth inhibition (E. coli K12; Peptide 900 nM, 7.9 × 10^3 bacteria/ml, 10% medium): − (Lagphase extended less than five times;)
- Bacterial growth inhibition (E. coli K12; Peptide 900 nM, 16 bacteria/ml, 100% medium): − (Lagphase extended less than five times)
- Bacterial growth inhibition (E. coli K12; Peptide 900 nM, 160 bacteria/ml, 100% medium): − (Lagphase extended less than five times)
- Bacterial growth inhibition (E. coli K12; Peptide 900 nM, 1600 bacteria/ml, 100% medium): − (Lagphase extended less than five times)
- Bacterial growth inhibition (E. coli K12; Peptide 1100 nM, 4.0 × 10^3 bacteria/ml, 10% medium): − (Lagphase extended less than five times;)
- Bacterial growth inhibition (E. coli K12; Peptide 1100 nM, 4.0 × 10^4 bacteria/ml, 10% medium): − (Lagphase extended less than five times;)
- Bacterial growth inhibition (E. coli K12; Peptide 1100 nM, 7.9 × 10^3 bacteria/ml, 10% medium): − (Lagphase extended less than five times;)
- Bacterial growth inhibition (E. coli K12; Peptide 1100 nM, 16 bacteria/ml, 100% medium): − (Lagphase extended less than five times)
- Bacterial growth inhibition (E. coli K12; Peptide 1100 nM, 160 bacteria/ml, 100% medium): − (Lagphase extended less than five times)
- Bacterial growth inhibition (E. coli K12; Peptide 1100 nM, 1600 bacteria/ml, 100% medium): − (Lagphase extended less than five times)
- Bacterial growth inhibition (E. coli K12; Peptide 1300 nM, 4.0 × 10^3 bacteria/ml, 10% medium): − (Lagphase extended less than five times;)
- Bacterial growth inhibition (E. coli K12; Peptide 1300 nM, 4.0 × 10^4 bacteria/ml, 10% medium): − (Lagphase extended less than five times;)
- Bacterial growth inhibition (E. coli K12; Peptide 1300 nM, 7.9 × 10^3 bacteria/ml, 10% medium): − (Lagphase extended less than five times;)
- Bacterial growth inhibition (E. coli K12; Peptide 1300 nM, 16 bacteria/ml, 100% medium): − (Lagphase extended less than five times)
- Bacterial growth inhibition (E. coli K12; Peptide 1300 nM, 160 bacteria/ml, 100% medium): − (Lagphase extended less than five times)
- Bacterial growth inhibition (E. coli K12; Peptide 1300 nM, 1600 bacteria/ml, 100% medium): − (Lagphase extended less than five times)
- Bacterial growth inhibition (E. coli K12; Peptide 1500 nM, 4.0 × 10^3 bacteria/ml, 10% medium): − (Lagphase extended less than five times;)
- Bacterial growth inhibition (E. coli K12; Peptide 1500 nM, 4.0 × 10^4 bacteria/ml, 10% medium): − (Lagphase extended less than five times;)
- Bacterial growth inhibition (E. coli K12; Peptide 1500 nM, 7.9 × 10^3 bacteria/ml, 10% medium): − (Lagphase extended less than five times;)
- Bacterial growth inhibition (E. coli K12; Peptide 1500 nM, 16 bacteria/ml, 100% medium): − (Lagphase extended less than five times)
- Bacterial growth inhibition (E. coli K12; Peptide 1500 nM, 160 bacteria/ml, 100% medium): − (Lagphase extended less than five times)
- Bacterial growth inhibition (E. coli K12; Peptide 1500 nM, 1600 bacteria/ml, 100% medium): − (Lagphase extended less than five times)
- Bacterial growth inhibition (E. coli K12; Peptide 2500 nM, 4.0 × 10^3 bacteria/ml, 10% medium): − (Lagphase extended less than five times;)
- Bacterial growth inhibition (E. coli K12; Peptide 2500 nM, 4.0 × 10^4 bacteria/ml, 10% medium): − (Lagphase extended less than five times;)
- Bacterial growth inhibition (E. coli K12; Peptide 2500 nM, 7.9 × 10^3 bacteria/ml, 10% medium): − (Lagphase extended less than five times;)
- Bacterial growth inhibition (E. coli K12; Peptide 2500 nM, 16 bacteria/ml, 100% medium): − (Lagphase extended less than five times)
- Bacterial growth inhibition (E. coli K12; Peptide 2500 nM, 160 bacteria/ml, 100% medium): − (Lagphase extended less than five times)
- Bacterial growth inhibition (E. coli K12; Peptide 2500 nM, 1600 bacteria/ml, 100% medium): − (Lagphase extended less than five times)
- Bacterial growth inhibition (E. coli K12; Peptide 5000 nM, 4.0 × 10^3 bacteria/ml, 10% medium): ((+)) (Lagphase extended less than five times, but still with growth curve effect)
- Bacterial growth inhibition (E. coli K12; Peptide 5000 nM, 4.0 × 10^4 bacteria/ml, 10% medium): ((+)) (Lagphase extended less than five times, but still with growth curve effect)
- Bacterial growth inhibition (E. coli K12; Peptide 5000 nM, 7.9 × 10^3 bacteria/ml, 10% medium): ((+)) (Lagphase extended less than five times, but still with growth curve effect)
- Bacterial growth inhibition (E. coli K12; Peptide 5000 nM, 16 bacteria/ml, 100% medium): − (Lagphase extended less than five times)
- Bacterial growth inhibition (E. coli K12; Peptide 5000 nM, 160 bacteria/ml, 100% medium): − (Lagphase extended less than five times)
- Bacterial growth inhibition (E. coli K12; Peptide 5000 nM, 1600 bacteria/ml, 100% medium): − (Lagphase extended less than five times)
- Bacterial growth inhibition (E. coli K12; Peptide 10000 nM, 4.0 × 10^3 bacteria/ml, 10% medium): ((+)) (Lagphase extended less than five times, but still with growth curve effect)
- Bacterial growth inhibition (E. coli K12; Peptide 10000 nM, 4.0 × 10^4 bacteria/ml, 10% medium): ((+)) (Lagphase extended less than five times, but still with growth curve effect)
- Bacterial growth inhibition (E. coli K12; Peptide 10000 nM, 7.9 × 10^3 bacteria/ml, 10% medium): ((+)) (Lagphase extended less than five times, but still with growth curve effect)
- Bacterial growth inhibition (E. coli K12; Peptide 10000 nM, 16 bacteria/ml, 100% medium): − (Lagphase extended less than five times)
- Bacterial growth inhibition (E. coli K12; Peptide 10000 nM, 160 bacteria/ml, 100% medium): − (Lagphase extended less than five times)
- Bacterial growth inhibition (E. coli K12; Peptide 10000 nM, 1600 bacteria/ml, 100% medium): − (Lagphase extended less than five times)
- Bacterial growth inhibition (E. coli K12; Peptide 15000 nM, 4.0 × 10^3 bacteria/ml, 10% medium): ((+)) (Lagphase extended less than five times, but still with growth curve effect)
- Bacterial growth inhibition (E. coli K12; Peptide 15000 nM, 4.0 × 10^4 bacteria/ml, 10% medium): ((+)) (Lagphase extended less than five times, but still with growth curve effect)
- Bacterial growth inhibition (E. coli K12; Peptide 15000 nM, 7.9 × 10^3 bacteria/ml, 10% medium): ((+)) (Lagphase extended less than five times, but still with growth curve effect)
- Bacterial growth inhibition (E. coli K12; Peptide 15000 nM, 16 bacteria/ml, 100% medium): − (Lagphase extended less than five times)
- Bacterial growth inhibition (E. coli K12; Peptide 15000 nM, 160 bacteria/ml, 100% medium): − (Lagphase extended less than five times)
- Bacterial growth inhibition (E. coli K12; Peptide 15000 nM, 1600 bacteria/ml, 100% medium): − (Lagphase extended less than five times)
- Bacterial growth inhibition (E. coli K12; Peptide 20000 nM, 4.0 × 10^3 bacteria/ml, 10% medium): +
- Bacterial growth inhibition (E. coli K12; Peptide 20000 nM, 4.0 × 10^4 bacteria/ml, 10% medium): ((+)) (Lagphase extended less than five times, but still with growth curve effect)
- Bacterial growth inhibition (E. coli K12; Peptide 20000 nM, 7.9 × 10^3 bacteria/ml, 10% medium): +
- Bacterial growth inhibition (E. coli K12; Peptide 20000 nM, 16 bacteria/ml, 100% medium): (+) (Significantly extended lagphase, (more than five times))
- Bacterial growth inhibition (E. coli K12; Peptide 20000 nM, 160 bacteria/ml, 100% medium): − (Lagphase extended less than five times)
- Bacterial growth inhibition (E. coli K12; Peptide 20000 nM, 1600 bacteria/ml, 100% medium): − (Lagphase extended less than five times)
- Peptide concentration giving total inhibition of growth (E. coli K12; cultures with 7.9×10^3 cells/ml, peptide without PNA): at least 20,000 nM
- Peptide concentration at which minimal signs of growth inhibition were detected (E. coli K12; peptide without PNA): ≥ 5,000 nM
- Bacterial growth inhibition (test culture): − (key: +: Total inhibition of bacterial growth.; (+): Significantly extended lagphase, (more than five times); −: Lagphase extended less than five times;)
